Laboratory results reported in US20220160716A1 (SORBONNE UNIVERSITE, priority 2019, published 2022).

What was measured:
CDK2/A = molecular target: T1, CDK2/A (Homo sapiens, UniProt P24941); assay: Protein kinase catalytic activity assay, CDK2/cyclin A; type: biochemical; conditions: activator cyclin A; read-out: IC50 of protein kinases, CDK2/A
T1 construct: made in house

CDK5/p25 = molecular target: T2, CDK5/p25 (Homo sapiens, UniProt Q00535); type: biochemical; conditions: activator p25; read-out: IC50 of protein kinases, CDK5/p25
T2 construct: made in house
T2 sequence (Q00535 whole entry, species assumed): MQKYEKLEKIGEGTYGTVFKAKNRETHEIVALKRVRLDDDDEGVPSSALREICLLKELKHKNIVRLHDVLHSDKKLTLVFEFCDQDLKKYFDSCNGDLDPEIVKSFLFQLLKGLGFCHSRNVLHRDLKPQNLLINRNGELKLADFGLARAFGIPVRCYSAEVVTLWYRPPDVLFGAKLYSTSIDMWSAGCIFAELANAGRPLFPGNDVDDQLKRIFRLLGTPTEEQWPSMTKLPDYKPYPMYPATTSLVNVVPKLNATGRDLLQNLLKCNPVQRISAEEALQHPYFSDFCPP
T2 sequence (Q15078 99-307 partner limits assumed, species assumed): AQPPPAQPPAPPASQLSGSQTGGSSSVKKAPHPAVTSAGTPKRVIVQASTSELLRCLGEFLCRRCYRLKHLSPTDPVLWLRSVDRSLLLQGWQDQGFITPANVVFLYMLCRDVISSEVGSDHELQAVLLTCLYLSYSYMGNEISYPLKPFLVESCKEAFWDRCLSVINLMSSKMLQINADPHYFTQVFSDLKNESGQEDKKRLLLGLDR

CLK1 = molecular target: T3, CLK1 (Homo sapiens, UniProt P49759); assay: Protein kinase catalytic activity assay, CLK1; type: biochemical; conditions: read-out: IC50 of protein kinases, CLK1
T3 construct: made in house
T3 sequence (P49759 whole entry): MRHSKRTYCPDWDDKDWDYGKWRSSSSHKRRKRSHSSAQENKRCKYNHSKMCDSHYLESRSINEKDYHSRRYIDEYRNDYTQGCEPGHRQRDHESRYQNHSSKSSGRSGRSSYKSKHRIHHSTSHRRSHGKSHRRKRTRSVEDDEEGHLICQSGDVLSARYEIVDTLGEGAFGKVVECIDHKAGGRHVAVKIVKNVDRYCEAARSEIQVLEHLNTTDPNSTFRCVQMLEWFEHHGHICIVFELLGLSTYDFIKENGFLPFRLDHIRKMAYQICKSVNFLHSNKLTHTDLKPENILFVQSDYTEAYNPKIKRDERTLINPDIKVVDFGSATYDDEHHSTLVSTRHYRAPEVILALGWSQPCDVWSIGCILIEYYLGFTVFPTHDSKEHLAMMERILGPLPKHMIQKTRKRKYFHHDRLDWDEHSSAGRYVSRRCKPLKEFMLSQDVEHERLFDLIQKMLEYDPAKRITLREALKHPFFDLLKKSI

DYRK1A = molecular target: T4, DYRK1A (Homo sapiens, UniProt Q13627); assay: Protein kinase catalytic activity assay, DYRK1A; type: biochemical; conditions: read-out: IC50 of protein kinases, DYRK1A
T4 construct: made in house

ABCB4-L556R [1] = molecular target: T5, ABCB4-L556R (Homo sapiens, UniProt P21439, L556R); assay: Canalicular localisation of ABCB4-L556R by indirect immunofluorescence in HepG2 cells; type: cell-based; design: The subcloning of wild type (WT) ABCB4, isoform A (NM_000443.3), into pcDNA3 vector has been described; expressed in transfected cells; host or cells: HepG2 (immunofluorescence); conditions: 25 μM
T5 sequence (P21439 1-1279 isoform P21439-2 L556R): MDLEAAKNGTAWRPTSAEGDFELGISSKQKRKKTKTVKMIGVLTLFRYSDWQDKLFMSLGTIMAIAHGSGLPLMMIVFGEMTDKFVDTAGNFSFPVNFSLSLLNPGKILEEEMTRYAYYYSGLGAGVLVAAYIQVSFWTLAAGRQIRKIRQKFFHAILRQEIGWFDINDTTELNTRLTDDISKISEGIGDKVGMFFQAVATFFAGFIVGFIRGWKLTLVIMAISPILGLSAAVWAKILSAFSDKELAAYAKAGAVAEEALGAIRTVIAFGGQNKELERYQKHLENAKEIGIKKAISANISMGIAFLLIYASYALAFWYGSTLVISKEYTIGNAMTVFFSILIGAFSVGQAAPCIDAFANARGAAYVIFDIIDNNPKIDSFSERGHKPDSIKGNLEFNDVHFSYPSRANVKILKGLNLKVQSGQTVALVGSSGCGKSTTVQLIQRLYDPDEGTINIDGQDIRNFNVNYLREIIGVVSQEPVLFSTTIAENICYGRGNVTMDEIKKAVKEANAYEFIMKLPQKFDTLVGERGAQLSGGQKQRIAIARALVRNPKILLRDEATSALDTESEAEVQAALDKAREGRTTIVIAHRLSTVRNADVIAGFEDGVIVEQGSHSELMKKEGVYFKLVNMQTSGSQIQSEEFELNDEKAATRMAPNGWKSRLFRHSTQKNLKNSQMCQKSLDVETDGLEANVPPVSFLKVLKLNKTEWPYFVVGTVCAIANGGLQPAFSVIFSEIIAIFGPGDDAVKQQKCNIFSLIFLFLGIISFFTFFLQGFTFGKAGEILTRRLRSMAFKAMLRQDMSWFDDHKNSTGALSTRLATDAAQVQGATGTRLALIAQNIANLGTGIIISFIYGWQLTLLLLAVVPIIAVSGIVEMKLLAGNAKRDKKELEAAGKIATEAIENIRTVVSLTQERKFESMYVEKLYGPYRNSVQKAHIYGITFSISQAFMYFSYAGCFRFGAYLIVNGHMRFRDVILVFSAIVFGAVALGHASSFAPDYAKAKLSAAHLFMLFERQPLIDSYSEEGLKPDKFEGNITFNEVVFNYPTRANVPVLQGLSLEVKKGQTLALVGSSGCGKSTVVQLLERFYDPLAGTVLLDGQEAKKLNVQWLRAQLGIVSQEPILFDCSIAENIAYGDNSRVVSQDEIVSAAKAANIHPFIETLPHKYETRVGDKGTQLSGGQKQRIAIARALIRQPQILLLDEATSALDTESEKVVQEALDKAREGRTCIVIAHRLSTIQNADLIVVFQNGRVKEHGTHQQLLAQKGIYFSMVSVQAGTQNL
Description: For indirect immunofluorescence, HepG2 cells were grown on glass coverslips and after transfection and treatments, they were fixed and permeabilized during 1 min at −20° C. in ice-cold methanol. Then ABCB4 and ABCC2 were immunolabelled using the mouse monoclonal P3II-26 (IgG2b) and M2I-4 (IgG1) antibodies (Enzo Life Sciences), respectively. AlexaFluor® 555 and AlexaFluor® 488 conjugated isotype-specific secondary antibodies (Thermo Fisher Scientific) and Hoechst 33342 (Thermo Fisher Scientific) were used to label ABCB4, ABCC2 and nuclei, respectively. Images were acquired using an IX83 inverted fluorescence microscope from Olympus (Rungis, France), equipped with a UPLSAPO 60XS2 silicone immersion objective and a Hamamatsu ORCA Flash4.0 digital CMOS camera, and analysed using Olympus CellSens Dimension Desktop version 1.16 and Adobe Photoshop version 8.0.1. For each experiment, all images were acquired with constant settings (acquisition time and correction of signal intensities).

ABCB4-I541F = ABCB4-I541F (Homo sapiens, UniProt P21439, I541F); assay: ABCB4-mediated phosphatidylcholine secretion, HEK cells expressing ABCB4-I541F; type: cell-based; design: The subcloning of wild type (WT) ABCB4, isoform A (NM_000443.3), into pcDNA3 vector has been described; expressed in transfected cells; host or cells: HEK-293 (immunoblot, PC secretion); conditions: 25 μM, maximal activity = cells expressing ABCB4-WT, vehicle 7.1±0.8%
Chain of ABCB4-I541F (P21439 1-1279 isoform P21439-2 I541F): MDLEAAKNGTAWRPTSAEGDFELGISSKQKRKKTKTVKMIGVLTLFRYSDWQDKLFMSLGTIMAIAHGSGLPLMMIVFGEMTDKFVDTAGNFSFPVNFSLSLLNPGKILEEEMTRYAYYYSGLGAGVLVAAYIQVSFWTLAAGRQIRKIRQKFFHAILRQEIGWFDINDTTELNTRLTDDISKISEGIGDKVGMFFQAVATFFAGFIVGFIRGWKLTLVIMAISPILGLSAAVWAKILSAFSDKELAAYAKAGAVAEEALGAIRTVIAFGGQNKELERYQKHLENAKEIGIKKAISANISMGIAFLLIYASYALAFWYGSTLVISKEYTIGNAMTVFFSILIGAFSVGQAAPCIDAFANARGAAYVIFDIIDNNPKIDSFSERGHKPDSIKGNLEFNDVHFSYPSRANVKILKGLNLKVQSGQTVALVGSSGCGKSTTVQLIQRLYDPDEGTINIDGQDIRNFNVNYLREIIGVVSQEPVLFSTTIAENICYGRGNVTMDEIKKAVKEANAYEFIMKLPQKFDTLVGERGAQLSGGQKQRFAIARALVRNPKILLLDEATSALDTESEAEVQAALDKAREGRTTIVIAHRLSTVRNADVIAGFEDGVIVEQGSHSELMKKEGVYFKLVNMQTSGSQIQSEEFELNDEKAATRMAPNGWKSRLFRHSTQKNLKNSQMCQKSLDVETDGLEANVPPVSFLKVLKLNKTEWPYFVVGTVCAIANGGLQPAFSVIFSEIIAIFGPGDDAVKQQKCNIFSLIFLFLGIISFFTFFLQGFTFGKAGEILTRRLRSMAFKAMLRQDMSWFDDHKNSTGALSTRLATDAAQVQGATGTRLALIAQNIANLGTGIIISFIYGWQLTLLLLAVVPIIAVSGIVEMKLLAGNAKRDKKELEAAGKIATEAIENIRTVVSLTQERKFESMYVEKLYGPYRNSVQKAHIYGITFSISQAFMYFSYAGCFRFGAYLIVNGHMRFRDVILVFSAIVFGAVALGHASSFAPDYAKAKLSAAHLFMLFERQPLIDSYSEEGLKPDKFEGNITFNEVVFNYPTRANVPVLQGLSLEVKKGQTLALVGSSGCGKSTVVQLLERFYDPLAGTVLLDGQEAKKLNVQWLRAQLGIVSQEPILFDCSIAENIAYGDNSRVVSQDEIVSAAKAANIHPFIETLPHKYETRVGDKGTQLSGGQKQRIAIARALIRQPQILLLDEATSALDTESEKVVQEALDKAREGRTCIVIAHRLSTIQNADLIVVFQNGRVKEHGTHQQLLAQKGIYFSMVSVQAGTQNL
Description: (§1) Cyclosporin A (CsA) was from Santa Cruz Biotechnologies (Dallas, Tex.). […] Each compound was solubilized in dimethylsulfoxide (DMSO) as 1000× concentrated stock solutions in order to treat cells with 5 μM to 100 μM final concentrations, using DMSO as control vehicle at the same dilution (0.1% DMSO for all conditions). The cells were treated 24 hours post-transfection with these drugs during 16 hours, except for the viability assays for which cells were treated during three days. After drug treatment, cells were used for immunoanalyses, cell viability assays or PC secretion assays.
(§2) HEK cells were seeded in 0.01% poly-L-lysine (Sigma) pre-coated 6-well plates of 10 cm^2 area per well (1.3×10^6 cells per well). After transient transfection of the empty vector (control), plasmids encoding ABCB4-WT or its variants, cells were incubated during 24 hours at 37° C. in serum-free medium supplemented with 0.5 mM sodium taurocholate (Sigma) and 0.02% fatty acid-free bovine serum albumin (Sigma). Then, the secreted PC was quantified from the collected media using a fluoro-enzymatic assay previously described (12). Each condition was analysed in triplicate, after background subtraction, and results were normalized to the expression levels of ABCB4 determined by immunoblots of the corresponding cell lysates.

ABCB4-I490T [2] = molecular target: T6, ABCB4-I490T (Homo sapiens, UniProt P21439, I490T); assay: Maturation of ABCB4-I490T by immunoblot in HEK cells; type: cell-based; design: The subcloning of wild type (WT) ABCB4, isoform A (NM_000443.3), into pcDNA3 vector has been described; expressed in transfected cells; host or cells: HEK-293 (immunoblot, PC secretion); conditions: 5 to 25 μM
T6 sequence (P21439 1-1279 isoform P21439-2 I490T): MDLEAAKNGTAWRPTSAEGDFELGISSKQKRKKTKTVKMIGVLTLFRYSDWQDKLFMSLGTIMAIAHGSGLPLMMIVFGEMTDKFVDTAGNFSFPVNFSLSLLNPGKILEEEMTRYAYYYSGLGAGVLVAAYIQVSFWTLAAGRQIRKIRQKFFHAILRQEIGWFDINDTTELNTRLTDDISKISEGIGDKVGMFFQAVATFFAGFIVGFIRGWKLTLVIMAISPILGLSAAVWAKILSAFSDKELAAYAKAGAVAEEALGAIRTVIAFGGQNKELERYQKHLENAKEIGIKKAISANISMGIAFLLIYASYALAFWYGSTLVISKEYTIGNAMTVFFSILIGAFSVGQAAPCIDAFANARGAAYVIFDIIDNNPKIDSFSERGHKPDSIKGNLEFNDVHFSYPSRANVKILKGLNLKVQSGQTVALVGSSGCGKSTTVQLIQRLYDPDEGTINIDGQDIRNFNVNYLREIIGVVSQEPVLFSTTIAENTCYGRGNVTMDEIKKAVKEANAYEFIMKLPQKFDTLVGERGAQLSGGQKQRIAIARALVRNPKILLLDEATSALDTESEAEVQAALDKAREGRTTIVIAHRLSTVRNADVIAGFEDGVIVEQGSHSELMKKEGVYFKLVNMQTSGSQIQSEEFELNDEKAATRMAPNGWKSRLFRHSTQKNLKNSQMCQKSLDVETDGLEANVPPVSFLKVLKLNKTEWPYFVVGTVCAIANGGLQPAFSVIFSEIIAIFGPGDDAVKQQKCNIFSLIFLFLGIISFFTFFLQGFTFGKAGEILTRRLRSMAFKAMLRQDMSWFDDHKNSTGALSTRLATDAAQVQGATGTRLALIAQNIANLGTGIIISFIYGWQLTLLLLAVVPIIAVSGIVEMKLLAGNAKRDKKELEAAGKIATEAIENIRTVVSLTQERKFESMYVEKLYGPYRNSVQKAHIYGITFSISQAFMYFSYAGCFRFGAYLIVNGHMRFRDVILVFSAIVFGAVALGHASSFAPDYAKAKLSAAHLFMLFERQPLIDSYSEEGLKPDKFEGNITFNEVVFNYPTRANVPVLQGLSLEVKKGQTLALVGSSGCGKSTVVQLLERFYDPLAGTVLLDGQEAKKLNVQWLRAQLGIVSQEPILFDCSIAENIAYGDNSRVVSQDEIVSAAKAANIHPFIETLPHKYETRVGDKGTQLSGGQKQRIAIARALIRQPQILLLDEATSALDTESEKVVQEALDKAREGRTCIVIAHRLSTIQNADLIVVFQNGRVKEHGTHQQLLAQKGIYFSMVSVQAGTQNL
Description: Western blots and indirect immunofluorescence were performed as previously described (2, 12). […] Saturated membranes were incubated with mouse monoclonal anti-ABCB4 (clone P3II-26; Enzo Life Sciences, Villeurbanne, France) or anti-α-tubulin (clone 1E4C11; ProteinTech, Manchester, United Kingdom) antibodies and then with peroxidase conjugated anti-mouse secondary antibodies (Sigma). Signals were detected with ECL prime western blotting detection reagent (GE Healthcare, Velizy-Villacoublay, France) and quantified in the linear range of detection using ImageJ 1.50i software (U.S. National Institutes of Health, Bethesda, Md.).

ABCB4-I490T [3] = molecular target: T6, ABCB4-I490T; assay: ABCB4-mediated phosphatidylcholine secretion, HEK cells expressing ABCB4-I490T; type: cell-based; design: The subcloning of wild type (WT) ABCB4, isoform A (NM_000443.3), into pcDNA3 vector has been described; expressed in transfected cells; host or cells: HEK-293 (immunoblot, PC secretion); conditions: 25 μM
Description: as §1, §2

ABCB4-L556R [4] = molecular target: T5, ABCB4-L556R; assay: ABCB4-mediated phosphatidylcholine secretion, HEK cells expressing ABCB4-L556R; type: cell-based; design: The subcloning of wild type (WT) ABCB4, isoform A (NM_000443.3), into pcDNA3 vector has been described; expressed in transfected cells; host or cells: HEK-293 (immunoblot, PC secretion); conditions: 25 μM
Description: as §1, §2

SMILES | IC50 (CDK2/A) [µM] | IC50 (CDK5/p25) [µM] | IC50 (CLK1) [µM] | IC50 (DYRK1A) [µM] | relocalisation of ABCB4-L556R at bile canaliculi (ABCB4-L556R [1]) | PC secretion activity of ABCB4-I541F (residual activity) (ABCB4-I541F) [%] | rescue of the maturation of ABCB4-I490T (ABCB4-I490T [2]) | PC secretion residual activity of ABCB4-I490T (ABCB4-I490T [3]) | PC secretion residual activity of ABCB4-L556R (ABCB4-L556R [4])
CC[C@@H](Nc1nc(NCc2cccc(F)c2)c2ncn(C3CCCC3)c2n1)C(=O)O [MRT2-235] | 5.9 | 8.3 | 11 | 21 | partially relocalised at bile canaliculi | 19.0±3.4 | dose-dependent rescue of the maturation | significant increase of the residual activity | significant increase of the residual activity
CC[C@@H](Nc1nc(NCc2cccc(Cl)c2)c2ncn(C3CCCC3)c2n1)C(=O)O [MRT2-237] | 3.4 | 7.7 | 8.5 | 13 | partially relocalised at bile canaliculi | 13.0±3.5 | dose-dependent rescue of the maturation | significant increase of the residual activity | significant increase of the residual activity
CC[C@@H](Nc1nc(NCc2ccc(Cl)c(F)c2)c2ncn(C3CCCC3)c2n1)C(=O)O [MRT2-243] | 3 | 6.3 | 20 | 12 | partially relocalised at bile canaliculi | 22.5±6.2 | dose-dependent rescue of the maturation | significant increase of the residual activity | significant increase of the residual activity
